Data set [1] concerns the target T1, hERG (human ether-a-go-go related gene potassium channel, KCNH2) (Homo sapiens, UniProt Q12809).
T1 construct: expressed in transfected cells; host or cells: HEK293
As to the kind of experiment: hERG channel whole-cell patch clamp (Ion Channel Activity Measurement). Type of data set: cell-based. Conditions: human, room temperature; for inhibition at 1 μM: pH 7.4, 1 μM test article; for inhibition at 10 μM: pH 7.4, 10 μM test article. How it is done:
HEK293 cell line expressing the human ERG (ether-a-go-go related gene) potassium channel (Potassium voltage-gated channel subfamily H member 2). cDNA strictly similar to GenBank accession number: NM_000238
(§1) Cells expressing channels were cultured in medium supplemented with 20% FBS in HAM'S F12 culture dish. Cells grew in a humidified incubator at 37° C. under 5% carbon dioxide. To passage cells, remove poor medium and rinse the cells once with PBS 1X. […] Place plate on a 37° C. warming incubator 5 min. As soon as cells are detached, add 5 ml of 37° C. complete medium. Draw cell suspension into a sterile pipet and homogenize cells gently to dissociate cells aggregates. Amplify or maintain the cells by seeding 2.5*105 cells in a 6 cm dish (final volume: 5 ml). To maintain electrophysiological performances, cell density must not exceed 80%. On the day before patch clamp experiment, 3*103 cells were seeded on coverslips in the 24-well plate and incubated at 37° C. in 5% carbon dioxide.
(§2) Glass pipette (BF150-86-10, Sutter Instruments) was made by puller (P97, Sutter Instruments). The glass pipette was manipulated using Micro-manipulator (Carm-C-S, MCI Instruments) under the microscope (AE31EF-INV, Motic). After touching the cell, a slight suction was applied to achieve high seal (GΩ). Fast capacitance (in pF) compensation was made after high seal was achieved; after achieving high seal, the membrane was broken, Cell capacitance (in pF) compensation was made from whole-cell capacitance compensation after the whole cell mode was achieved. No leak subtraction was made.
(§3) Cell was incubated with the test article for 5 minutes, or until the current reached a steady-state level. Multiple concentrations of test article were tested. The test articles were applied gradually from low to high concentration. The test and control solutions were flown into a recording chamber mounted on the stage of an inverted microscope via a gravity-fed solution delivery system. During the experiment, solutions were withdrawn from the recording chamber by vacuum aspiration. Each concentration was tested at multiple times. Each cell acted as its own control. All tests were performed at room temperature (23-25° C.).
hERG current was recorded under a holding potential at −80 mV and then depolarized to 30 mV for 2.5 seconds to activate the hERG channel. The peak tail currents were induced by a repolarizing pulse to −50 mV for 4 seconds. This voltage-clamp pulse protocol was performed continuously during the experiment. An interpulse interval of 10 seconds allowed recovery from inactivation. An interpulse of −50 mV test for 0.5 second before 30 mV depolarized step was included for leak current correction

For data set [2], the target named is T2, CaV1.2 (L-type voltage-dependent calcium channel; CACNA1C, CACNB2, CACNA2D1) (Homo sapiens, UniProt Q13936).
T2 construct: expressed in transfected cells; host or cells: CHO
T2 sequence (Q13936 1-2138 isoform Q13936-12): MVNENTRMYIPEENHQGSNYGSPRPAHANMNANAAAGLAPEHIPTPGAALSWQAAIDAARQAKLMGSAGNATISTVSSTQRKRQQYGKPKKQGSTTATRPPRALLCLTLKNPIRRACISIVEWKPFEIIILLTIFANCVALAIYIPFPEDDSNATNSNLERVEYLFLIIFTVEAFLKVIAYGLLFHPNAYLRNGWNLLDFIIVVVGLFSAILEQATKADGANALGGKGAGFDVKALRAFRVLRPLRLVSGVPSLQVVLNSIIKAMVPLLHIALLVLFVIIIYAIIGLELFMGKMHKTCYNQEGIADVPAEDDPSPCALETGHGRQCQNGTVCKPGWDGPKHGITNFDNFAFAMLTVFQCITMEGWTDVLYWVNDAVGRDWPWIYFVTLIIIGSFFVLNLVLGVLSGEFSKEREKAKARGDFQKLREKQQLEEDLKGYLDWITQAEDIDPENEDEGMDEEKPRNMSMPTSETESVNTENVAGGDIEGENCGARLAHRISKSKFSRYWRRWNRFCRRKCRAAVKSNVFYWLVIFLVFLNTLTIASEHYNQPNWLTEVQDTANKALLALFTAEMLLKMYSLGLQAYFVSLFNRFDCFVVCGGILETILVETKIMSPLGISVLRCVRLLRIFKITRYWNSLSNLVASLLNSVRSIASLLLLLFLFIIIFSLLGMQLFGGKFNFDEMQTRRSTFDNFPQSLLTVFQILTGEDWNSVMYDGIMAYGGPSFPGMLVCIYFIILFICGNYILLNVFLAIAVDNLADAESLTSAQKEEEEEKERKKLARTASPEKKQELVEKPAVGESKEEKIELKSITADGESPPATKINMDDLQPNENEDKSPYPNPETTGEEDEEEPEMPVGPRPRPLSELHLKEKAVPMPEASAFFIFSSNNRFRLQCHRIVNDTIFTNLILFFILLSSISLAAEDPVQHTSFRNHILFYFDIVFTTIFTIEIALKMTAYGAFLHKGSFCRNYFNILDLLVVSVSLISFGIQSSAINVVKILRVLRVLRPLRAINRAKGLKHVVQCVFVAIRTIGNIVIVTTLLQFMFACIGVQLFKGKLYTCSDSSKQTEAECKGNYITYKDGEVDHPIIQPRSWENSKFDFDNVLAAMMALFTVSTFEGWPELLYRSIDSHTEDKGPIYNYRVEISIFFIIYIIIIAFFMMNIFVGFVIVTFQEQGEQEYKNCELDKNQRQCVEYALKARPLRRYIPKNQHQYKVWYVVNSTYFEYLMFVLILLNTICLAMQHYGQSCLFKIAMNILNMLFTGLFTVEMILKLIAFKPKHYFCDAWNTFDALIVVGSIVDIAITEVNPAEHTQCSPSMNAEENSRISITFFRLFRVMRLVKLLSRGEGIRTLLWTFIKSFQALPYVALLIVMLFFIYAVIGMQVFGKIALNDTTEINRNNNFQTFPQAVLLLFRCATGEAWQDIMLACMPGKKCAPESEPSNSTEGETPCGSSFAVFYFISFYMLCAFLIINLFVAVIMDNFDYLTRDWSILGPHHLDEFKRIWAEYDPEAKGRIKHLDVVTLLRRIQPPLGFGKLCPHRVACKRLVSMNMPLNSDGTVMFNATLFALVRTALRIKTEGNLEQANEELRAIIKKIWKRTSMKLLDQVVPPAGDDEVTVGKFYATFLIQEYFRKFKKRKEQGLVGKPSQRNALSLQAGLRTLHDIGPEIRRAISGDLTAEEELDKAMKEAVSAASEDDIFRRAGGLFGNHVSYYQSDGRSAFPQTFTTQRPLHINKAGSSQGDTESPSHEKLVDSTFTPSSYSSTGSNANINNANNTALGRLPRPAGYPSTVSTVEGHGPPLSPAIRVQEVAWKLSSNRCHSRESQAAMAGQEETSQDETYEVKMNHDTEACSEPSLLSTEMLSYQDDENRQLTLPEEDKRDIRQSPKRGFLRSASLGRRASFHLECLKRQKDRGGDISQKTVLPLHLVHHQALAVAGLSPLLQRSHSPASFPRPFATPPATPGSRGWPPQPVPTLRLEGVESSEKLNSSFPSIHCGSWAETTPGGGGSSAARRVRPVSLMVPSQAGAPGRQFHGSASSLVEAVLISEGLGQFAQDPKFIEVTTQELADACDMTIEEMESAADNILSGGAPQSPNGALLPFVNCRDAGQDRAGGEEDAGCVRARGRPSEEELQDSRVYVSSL
T2 sequence (Q08289 1-605 isoform Q08289-2 partner): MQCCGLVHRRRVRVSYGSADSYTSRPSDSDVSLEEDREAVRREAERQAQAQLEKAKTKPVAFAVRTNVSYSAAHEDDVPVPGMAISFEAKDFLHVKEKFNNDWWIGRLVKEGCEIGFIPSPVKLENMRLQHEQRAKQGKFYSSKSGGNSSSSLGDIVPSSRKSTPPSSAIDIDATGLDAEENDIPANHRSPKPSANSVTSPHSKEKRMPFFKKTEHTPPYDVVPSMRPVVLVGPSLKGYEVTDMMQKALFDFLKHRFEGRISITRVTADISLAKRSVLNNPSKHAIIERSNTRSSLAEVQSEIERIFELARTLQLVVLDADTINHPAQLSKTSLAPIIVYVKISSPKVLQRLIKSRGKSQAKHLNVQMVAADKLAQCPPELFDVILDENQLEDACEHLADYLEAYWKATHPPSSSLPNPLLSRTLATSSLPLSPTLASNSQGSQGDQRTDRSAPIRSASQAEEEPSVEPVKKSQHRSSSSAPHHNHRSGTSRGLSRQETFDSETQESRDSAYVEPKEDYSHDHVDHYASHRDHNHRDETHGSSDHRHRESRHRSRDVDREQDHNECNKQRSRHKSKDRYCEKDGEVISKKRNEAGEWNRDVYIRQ
T2 sequence (P54289 25-1091 isoform P54289-2 partner limits assumed): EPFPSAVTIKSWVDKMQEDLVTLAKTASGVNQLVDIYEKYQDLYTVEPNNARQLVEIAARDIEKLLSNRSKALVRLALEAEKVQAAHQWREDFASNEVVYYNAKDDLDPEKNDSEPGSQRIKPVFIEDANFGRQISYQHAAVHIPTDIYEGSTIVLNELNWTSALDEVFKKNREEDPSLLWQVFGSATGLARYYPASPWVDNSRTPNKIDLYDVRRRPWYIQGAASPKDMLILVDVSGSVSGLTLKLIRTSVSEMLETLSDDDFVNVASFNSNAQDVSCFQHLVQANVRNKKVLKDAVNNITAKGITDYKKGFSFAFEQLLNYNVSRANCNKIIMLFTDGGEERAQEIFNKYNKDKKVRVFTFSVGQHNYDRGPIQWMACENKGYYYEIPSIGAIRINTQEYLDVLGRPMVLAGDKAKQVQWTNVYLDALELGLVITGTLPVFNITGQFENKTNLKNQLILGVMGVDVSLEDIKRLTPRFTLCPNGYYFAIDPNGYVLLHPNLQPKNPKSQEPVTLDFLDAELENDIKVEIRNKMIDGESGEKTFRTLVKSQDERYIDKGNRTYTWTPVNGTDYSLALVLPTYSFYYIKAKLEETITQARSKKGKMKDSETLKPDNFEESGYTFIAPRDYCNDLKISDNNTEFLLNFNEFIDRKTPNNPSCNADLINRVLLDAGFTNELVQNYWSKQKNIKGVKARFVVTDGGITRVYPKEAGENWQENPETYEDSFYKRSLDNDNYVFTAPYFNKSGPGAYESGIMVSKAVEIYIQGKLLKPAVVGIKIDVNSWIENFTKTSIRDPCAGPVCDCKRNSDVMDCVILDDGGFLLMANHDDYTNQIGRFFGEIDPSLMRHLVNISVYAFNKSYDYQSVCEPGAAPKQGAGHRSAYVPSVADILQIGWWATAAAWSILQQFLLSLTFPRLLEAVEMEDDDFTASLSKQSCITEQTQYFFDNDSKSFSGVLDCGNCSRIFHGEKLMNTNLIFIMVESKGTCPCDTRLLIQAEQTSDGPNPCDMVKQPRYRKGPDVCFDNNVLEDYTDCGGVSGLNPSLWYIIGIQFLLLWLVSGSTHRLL
T2 sequence (P54289 957-1103 partner limits assumed): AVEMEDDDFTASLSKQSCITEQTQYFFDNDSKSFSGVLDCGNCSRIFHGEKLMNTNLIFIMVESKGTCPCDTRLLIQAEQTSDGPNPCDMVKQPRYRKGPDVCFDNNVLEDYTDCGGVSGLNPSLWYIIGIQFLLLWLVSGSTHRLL
Nature of the data set: CaV1.2 channel whole-cell patch clamp (Ion Channel Activity Measurement). Type of data set: cell-based. Conditions: human, room temperature; for inhibition at 5 min, 1 μM: pH 7.4, 1 μM test article; for inhibition at 5 min, 10 μM: pH 7.4, 10 μM test article, read-out: CaV 1.2 10 μM (ion-channel inhibition). How it is done:
• CHO cell line stably expressing human calcium channel, voltage-dependent, L type, • CACNA1C: cDNA strictly similar to GenBank accession number: NM_000719 • CACNB2: cDNA strictly similar to GenBank accession number: NM_000724 • CACNA2D1: cDNA strictly similar to GenBank accession number: NM_000722 Iks Channel Cell Line:
as §1
Bath solution: 140 mM TEA-C1, 2 mM MgCl2·6H2O, 10 mM CaCl2, 10 mM HEPES, 5 mM D-glucose, pH=7.4 with TEA-OH. Pipette solution: 120 mM CsCl, 1 mM MgCl2·6H2O, 10 mM HEPES, 10 mM EGTA, 0.3 mM Na2-GTP, 4 mM Mg-ATP, pH=7.2 with CsOH.
as §2, §3
Cav1.2 current was recorded under a holding potential at −80 mV and then depolarized to +10 mV for 0.3 seconds. This protocol was repeated at 20 s intervals to observe the effect of test articles on the peak of Cav1.2 current.

Setting [3] is: HEK293 cells expressing the human ERG potassium channel.

T1 sequence (Q12809 whole entry): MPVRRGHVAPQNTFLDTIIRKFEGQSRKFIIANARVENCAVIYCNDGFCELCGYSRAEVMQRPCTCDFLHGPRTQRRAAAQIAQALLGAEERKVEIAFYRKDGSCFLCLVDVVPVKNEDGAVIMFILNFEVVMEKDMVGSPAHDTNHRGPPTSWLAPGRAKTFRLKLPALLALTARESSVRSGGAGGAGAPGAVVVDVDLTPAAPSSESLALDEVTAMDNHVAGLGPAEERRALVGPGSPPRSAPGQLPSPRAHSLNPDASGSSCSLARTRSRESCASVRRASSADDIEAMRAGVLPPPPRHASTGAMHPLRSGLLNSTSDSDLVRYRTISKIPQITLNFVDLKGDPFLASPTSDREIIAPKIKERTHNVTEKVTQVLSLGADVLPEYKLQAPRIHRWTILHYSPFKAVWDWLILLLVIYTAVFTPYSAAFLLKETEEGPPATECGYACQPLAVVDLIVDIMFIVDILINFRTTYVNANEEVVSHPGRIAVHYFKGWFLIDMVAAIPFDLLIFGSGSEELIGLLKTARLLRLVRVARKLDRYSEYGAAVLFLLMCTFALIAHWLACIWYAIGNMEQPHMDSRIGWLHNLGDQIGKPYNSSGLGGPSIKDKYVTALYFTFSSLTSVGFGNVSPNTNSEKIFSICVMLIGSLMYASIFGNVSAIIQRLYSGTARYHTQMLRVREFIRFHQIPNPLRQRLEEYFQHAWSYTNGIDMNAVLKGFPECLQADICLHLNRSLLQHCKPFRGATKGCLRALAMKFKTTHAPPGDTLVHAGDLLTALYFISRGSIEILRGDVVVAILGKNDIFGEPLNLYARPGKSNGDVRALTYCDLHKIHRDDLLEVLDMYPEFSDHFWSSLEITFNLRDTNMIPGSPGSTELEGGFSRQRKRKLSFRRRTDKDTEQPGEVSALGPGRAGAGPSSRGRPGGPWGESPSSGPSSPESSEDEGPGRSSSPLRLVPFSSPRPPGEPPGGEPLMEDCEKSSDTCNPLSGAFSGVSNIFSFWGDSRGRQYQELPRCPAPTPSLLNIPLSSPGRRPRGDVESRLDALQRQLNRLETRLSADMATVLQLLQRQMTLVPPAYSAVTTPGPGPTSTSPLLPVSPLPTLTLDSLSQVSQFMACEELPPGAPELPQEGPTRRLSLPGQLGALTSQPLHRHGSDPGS

With `Oc1ccc2ccccc2c1Cc1c(OCCC2CCNCC2)ccc2ccccc12` [Compound A286, 1-((2-(2-(piperidin-4-yl)ethoxy)naphthalen-1-yl)methyl)naphthalen-2-ol], the inhibition at 1 μM in data set [1] (setting [3]) fell in the range of 75 to 100%. In data set [2], the inhibition at 5 min, 1 μM is below 25% and the inhibition at 5 min, 10 μM lay within 75 to 100%.

Consider `Oc1ccc2ccccc2c1Cc1c(O)ccc2ccncc12` [Compound A109, 8-((2-hydroxynaphthalen-1-yl)methyl)isoquinolin-7-ol], for which, in data set [1] (setting [3]), the inhibition at 1 μM is below 25% and the inhibition at 10 μM lay in the range of 75 to 100%. In data set [2], the inhibition at 5 min, 1 μM lay in the range of 25 to 50% and the inhibition at 5 min, 10 μM was 50 to 75%.

In data set [1] (setting [3]), `CCN(CC)CC(=O)Nc1ccc2ccccc2c1Cc1c(OC)ccc2ccccc12` [Compound A284, 2-(diethylamino)-N-(1-((2-methoxynaphthalen-1-yl)methyl)naphthalen-2-yl)acetamide] had an inhibition at 1 μM of 25 to 50%. In data set [2], the inhibition at 5 min, 1 μM was below 25% and the inhibition at 5 min, 10 μM was below 25%.

In data set [1] (setting [3]), `Oc1c(F)cc2ccccc2c1Cc1c(O)c(F)cc2ccccc12` [Compound A049, 1,1′-methylenebis(3-fluoronaphthalen-2-ol)] showed an inhibition at 1 μM below 25% and an inhibition at 10 μM of 50 to 75%. Besides, in data set [2], the inhibition at 5 min, 1 μM is below 25% and the inhibition at 5 min, 10 μM is 50 to 75%.

Regarding `CCN(CC)CCOc1ccc2ccccc2c1Cc1c(OCc2ccccc2)ccc2ccccc12` [Compound A290, 2-((1-((2-(benzyloxy)naphthalen-1-yl)methyl)naphthalen-2-yl)oxy)-N,N-diethylethan-1-amine], in data set [1] (setting [3]), the inhibition at 1 μM fell in the range of 75 to 100% and the inhibition at 10 μM lay within 75 to 100%. In addition, in data set [2], the inhibition at 5 min, 1 μM was 25 to 50% and the inhibition at 5 min, 10 μM lay in the range of 50 to 75%.

Consider `Oc1ccc2ccccc2c1Cn1nc(-c2ccccc2)cc1O` [Compound A059], for which, in data set [1], the inhibition at 1 μM is below 25% and the inhibition at 10 μM is below 25%. In addition, in data set [2], the inhibition at 5 min, 1 μM is below 25% and the inhibition at 5 min, 10 μM is below 25%.

In data set [1] (setting [3]), `O=C(Nc1c(O)ccc2ccccc12)c1c(O)ccc2ccccc12` [Compound A044, 2-hydroxy-N-(2-hydroxynaphthalen-1-yl)-1-naphthamide] had an inhibition at 1 μM below 25% and an inhibition at 10 μM of 25 to 50%. Moreover, in data set [2], the inhibition at 5 min, 1 μM is below 25% and the inhibition at 5 min, 10 μM is below 25%.

In data set [1] (setting [3]), `Oc1c(Cl)cc2ccccc2c1Cc1c(O)c(Cl)cc2ccccc12` [Compound A046, 1,1′-methylenebis(3-chloronaphthalen-2-ol)] returned an inhibition at 1 μM below 25% and an inhibition at 10 μM below 25%. Also, in data set [2], the inhibition at 5 min, 1 μM was below 25% and the inhibition at 5 min, 10 μM is below 25%.

In data set [1] (setting [3]), `Oc1cccc(-c2cccnc2)c1Cc1c(O)cccc1-c1cccnc1` [Compound A117, 2,2′-methylenebis(3-(pyridin-3-yl)phenol)] returned an inhibition at 1 μM below 25% and an inhibition at 10 μM below 25%. Besides, in data set [2], the inhibition at 5 min, 1 μM was below 25% and the inhibition at 5 min, 10 μM was 25 to 50%.

As for `NC(=O)c1ccc2c(Cc3c(O)ccc4cc(C(N)=O)ccc34)c(O)ccc2c1` [Compound A123, 5,5′-methylenebis(6-hydroxy-2-naphthamide)], in data set [1] (setting [3]), the inhibition at 1 μM was below 25% and the inhibition at 10 μM is 25 to 50%. In addition, in data set [2], the inhibition at 5 min, 1 μM was below 25% and the inhibition at 5 min, 10 μM was below 25%.

Turning to `COc1cccc(-c2cccnc2)c1Cc1c(O)cccc1-c1cccnc1` [Compound A117-I-1, 2-(2-methoxy-6-(pyridin-3-yl)benzyl)-3-(pyridin-3-yl)phenol], in data set [1] (setting [3]), the inhibition at 1 μM is below 25% and the inhibition at 10 μM fell in the range of 25 to 50%. Also, in data set [2], the inhibition at 5 min, 1 μM is below 25% and the inhibition at 5 min, 10 μM was below 25%.

In data set [1] (setting [3]), `CN1CCC(COc2ccc3ccccc3c2Cc2c(O)ccc3ccccc23)C1` (stereo not shown) [Compound A262, 1-((2-((1-methylpyrrolidin-3-yl)methoxy)naphthalen-1-yl)methyl)naphthalen-2-ol] came in with an inhibition at 1 μM of 75 to 100% and an inhibition at 10 μM of 75 to 100%. Further, in data set [2], the inhibition at 5 min, 1 μM is below 25% and the inhibition at 5 min, 10 μM is 75 to 100%.

In data set [1] (setting [3]), `COc1ccc2ccccc2c1Nc1c([N+](=O)[O-])ccc2ccccc12` [Compound A196, 2-methoxy-N-(2-nitronaphthalen-1-yl)naphthalen-1-amine] returned an inhibition at 1 μM below 25% and an inhibition at 10 μM below 25%. In data set [2], the inhibition at 5 min, 1 μM was below 25% and the inhibition at 5 min, 10 μM is below 25%.

In data set [1] (setting [3]), `O=C(c1c(O)ccc2ccccc12)c1c(O)ccc2ccccc12` [Compound A007, bis(2-hydroxynaphthalen-1-yl)methanone] gave an inhibition at 1 μM below 25% and an inhibition at 10 μM of 25 to 50%. In addition, in data set [2], the inhibition at 5 min, 1 μM is below 25% and the inhibition at 5 min, 10 μM was 50 to 75%.

Compound `c1ccc(COc2ccc3ccccc3c2Cc2c(OCCN3CCCC3)ccc3ccccc23)cc1` [Compound A291, 1-(2-((1-((2-(benzyloxy)naphthalen-1-yl)methyl)naphthalen-2-yl)oxy)ethyl)pyrrolidine] showed an inhibition at 1 μM in data set [1] (setting [3]) of 75 to 100%. Besides, the inhibition at 5 min, 1 μM in data set [2] is below 25%.

In the case of `CCN(CC)CCOc1ccc2cc(C(=O)O)ccc2c1Cc1c(O)ccc2cc(C(=O)O)ccc12` [Compound A125, 5-((6-carboxy-2-(2-(diethylamino)ethoxy)naphthalen-1-yl)methyl)-6-hydroxy-2-naphthoic acid], the inhibition at 1 μM in data set [1] (setting [3]) is below 25%. In data set [2], the inhibition at 5 min, 1 μM was below 25% and the inhibition at 5 min, 10 μM fell in the range of 75 to 100%.

On to `CCN(CC)CC(=O)Oc1ccc2ccccc2c1Cc1c(OC)ccc2ccccc12` [Compound A232, 1-((2-methoxynaphthalen-1-yl)methyl)naphthalen-2-yl diethylglycinate], for which, in data set [1], the inhibition at 1 μM is 50 to 75% and the inhibition at 10 μM lay in the range of 75 to 100%. Besides, in data set [2], the inhibition at 5 min, 1 μM is below 25% and the inhibition at 5 min, 10 μM is 75 to 100%.

In data set [1] (setting [3]), `Cc1cc2ccccc2c(O)c1Cc1c(C)cc2ccccc2c1O` [Compound A035, 2,2′-methylenebis(3-methylnaphthalen-1-ol)] registered an inhibition at 1 μM below 25% and an inhibition at 10 μM of 50 to 75%. Besides, in data set [2], the inhibition at 5 min, 1 μM was below 25% and the inhibition at 5 min, 10 μM lay in the range of 75 to 100%.

In the case of `COc1ccc2ccccc2c1Cc1c(OCCN(CCO)CCO)ccc2ccccc12` [Compound A195, 2,2′-((2-((1-((2-methoxynaphthalen-1-yl)methyl)naphthalen-2-yl)oxy)ethyl)azanediyl)bis(ethan-1-ol)], in data set [1] (setting [3]), the inhibition at 1 μM lay within 75 to 100% and the inhibition at 10 μM is 75 to 100%. For the same compound, in data set [2], the inhibition at 5 min, 1 μM was below 25% and the inhibition at 5 min, 10 μM lay within 75 to 100%.

Consider `Oc1ccc2ccccc2c1Cc1c(O)ncc2ccccc12` [Compound A027, 4-((2-hydroxynaphthalen-1-yl)methyl)isoquinolin-3-ol], for which, in data set [1] (setting [3]), the inhibition at 1 μM is below 25% and the inhibition at 10 μM was below 25%. For the same compound, in data set [2], the inhibition at 5 min, 1 μM is below 25% and the inhibition at 5 min, 10 μM lay in the range of 25 to 50%.

In data set [1] (setting [3]), `COc1ccc2ccccc2c1Cc1c(OCCO)ccc2ccccc12` [Compound A139-2, 2-((1-((2-methoxynaphthalen-1-yl)methyl)naphthalen-2-yl)oxy)ethan-1-ol] displayed an inhibition at 1 μM of 75 to 100% and an inhibition at 10 μM of 75 to 100%. Further, in data set [2], the inhibition at 5 min, 1 μM is below 25% and the inhibition at 5 min, 10 μM was in the range of 75 to 100%.

(Values after patent US12187681B2 (Shanghai East Hospital, priority 2019, dated 2025).)
